Laboratory results as given in ChEMBL document CHEMBL3792365, “Dioxol and dihydrodioxin analogs of 2- and 3-phenylacetonitriles as potent anti-cancer agents with nanomolar activity against a variety of human cancer cells” (2016).

Assays:
Assay type in all cases: functional
[1] = Growth inhibition of human SNB75 cells at 10 uM after 48 hrs by sulforhodamine B assay; settings: SNB-75, 48 h, values are per cent of control
[2] = Growth inhibition of human LOXIMVI cells at 10 uM after 48 hrs by sulforhodamine B assay; settings: LOX IMVI, values are per cent of control
[3] = tested on: M14; assay: Growth inhibition of human M14 cells at 10 uM after 48 hrs by sulforhodamine B assay; settings: M14, 48 h, values are per cent of control
[4] = tested on: MDA-MB-435; assay: Growth inhibition of human MDA-MB-435 cells at 10 uM after 48 hrs by sulforhodamine B assay; settings: MDA-MB-435, 48 h, values are per cent of control
[5] = tested on: SK-MEL-2; assay: Growth inhibition of human SK-MEL-2 cells at 10 uM after 48 hrs by sulforhodamine B assay; settings: SK-MEL-2, 48 h, values are per cent of control
[6] = tested on: SK-MEL-28; assay: Growth inhibition of human SK-MEL-28 cells at 10 uM after 48 hrs by sulforhodamine B assay; settings: SK-MEL-28, 48 h, values are per cent of control
[7] = tested on: SK-MEL-5; assay: Growth inhibition of human SK-MEL-5 cells at 10 uM after 48 hrs by sulforhodamine B assay; settings: SK-MEL-5, 48 h, values are per cent of control
[8] = Growth inhibition of human UACC62 cells at 10 uM after 48 hrs by sulforhodamine B assay; settings: UACC-62, 48 h, values are per cent of control
[9] = Growth inhibition of human IGROV1 cells at 10 uM after 48 hrs by sulforhodamine B assay; settings: IGROV-1, 48 h, values are per cent of control
[10] = Growth inhibition of human OVCAR4 cells at 10 uM after 48 hrs by sulforhodamine B assay; settings: OVCAR-4, 48 h, values are per cent of control
[11] = Growth inhibition of human OVCAR5 cells at 10 uM after 48 hrs by sulforhodamine B assay; settings: OVCAR-5, 48 h, values are per cent of control
[12] = Growth inhibition of human OVCAR8 cells at 10 uM after 48 hrs by sulforhodamine B assay; settings: OVCAR-8, 48 h, values are per cent of control
[13] = tested on: 786-0; assay: Growth inhibition of human 786-0 cells at 10 uM after 48 hrs by sulforhodamine B assay; settings: 786-0, 48 h, values are per cent of control
[14] = tested on: A498; assay: Growth inhibition of human A498 cells at 10 uM after 48 hrs by sulforhodamine B assay; settings: A498, 48 h, values are per cent of control
[15] = tested on: ACHN; assay: Growth inhibition of human ACHN cells at 10 uM after 48 hrs by sulforhodamine B assay; settings: values are per cent of control
[16] = Growth inhibition of human Caki1 cells at 10 uM after 48 hrs by sulforhodamine B assay; settings: CAKI-1, 48 h, values are per cent of control
[17] = Growth inhibition of human RXF393 cells at 10 uM after 48 hrs by sulforhodamine B assay; settings: RXF 393, 48 h, values are per cent of control
[18] = tested on: SN12C; assay: Growth inhibition of human SN12C cells at 10 uM after 48 hrs by sulforhodamine B assay; settings: values are per cent of control
[19] = Growth inhibition of human UO31 cells at 10 uM after 48 hrs by sulforhodamine B assay; settings: UO-31, 48 h, values are per cent of control
[20] = Growth inhibition of human DU145 cells at 10 uM after 48 hrs by sulforhodamine B assay; settings: DU-145, 48 h, values are per cent of control
[21] = tested on: MDA-MB-231; assay: Growth inhibition of human MDA-MB-231 cells at 10 uM after 48 hrs by sulforhodamine B assay; settings: MDA-MB-231, 48 h, values are per cent of control
[22] = Growth inhibition of human Hs 578T cells at 10 uM after 48 hrs by sulforhodamine B assay; settings: values are per cent of control
[23] = Growth inhibition of human BT549 cells at 10 uM after 48 hrs by sulforhodamine B assay; settings: BT-549, 48 h, values are per cent of control
[24] = tested on: K562; assay: Growth inhibition of human K562 cells at 10 uM after 48 hrs by sulforhodamine B assay; settings: K562, 48 h, values are per cent of control
[25] = tested on: SR; assay: Growth inhibition of human SR cells at 10 uM after 48 hrs by sulforhodamine B assay; settings: values are per cent of control
[26] = tested on: A549; assay: Growth inhibition of human A549/ATCC cells at 10 uM after 48 hrs by sulforhodamine B assay; settings: A549, 48 h, values are per cent of control
[27] = Growth inhibition of human HOP62 cells at 10 uM after 48 hrs by sulforhodamine B assay; settings: HOP-62, 48 h, values are per cent of control
[28] = tested on: NCI-H226; assay: Growth inhibition of human NCI-H226 cells at 10 uM after 48 hrs by sulforhodamine B assay; settings: NCI-H226, 48 h, values are per cent of control
[29] = tested on: NCI-H23; assay: Growth inhibition of human NCI-H23 cells at 10 uM after 48 hrs by sulforhodamine B assay; settings: NCI-H23, 48 h, values are per cent of control
[30] = tested on: NCI-H322M; assay: Growth inhibition of human NCI-H322M cells at 10 uM after 48 hrs by sulforhodamine B assay; settings: values are per cent of control
[31] = tested on: NCI-H460; assay: Growth inhibition of human NCI-H460 cells at 10 uM after 48 hrs by sulforhodamine B assay; settings: NCI-H460, 48 h, values are per cent of control
[32] = Growth inhibition of human COLO205 cells at 10 uM after 48 hrs by sulforhodamine B assay; settings: COLO 205, 48 h, values are per cent of control
[33] = Growth inhibition of human HCT116 cells at 10 uM after 48 hrs by sulforhodamine B assay; settings: HCT-116, 48 h, values are per cent of control
[34] = Growth inhibition of human HCT15 cells at 10 uM after 48 hrs by sulforhodamine B assay; settings: HCT-15, 48 h, values are per cent of control
[35] = tested on: HT-29; assay: Growth inhibition of human HT-29 cells at 10 uM after 48 hrs by sulforhodamine B assay; settings: HT-29, 48 h, values are per cent of control
[36] = tested on: KM12; assay: Growth inhibition of human KM12 cells at 10 uM after 48 hrs by sulforhodamine B assay; settings: KM12, 48 h, values are per cent of control
[37] = Growth inhibition of human SW620 cells at 10 uM after 48 hrs by sulforhodamine B assay; settings: SW-620, 48 h, values are per cent of control
[38] = Growth inhibition of human SF295 cells at 10 uM after 48 hrs by sulforhodamine B assay; settings: SF-295, 48 h, values are per cent of control
[39] = Growth inhibition of human SF539 cells at 10 uM after 48 hrs by sulforhodamine B assay; settings: SF-539, 48 h, values are per cent of control
[40] = Growth inhibition of human SNB19 cells at 10 uM after 48 hrs by sulforhodamine B assay; settings: SNB-19, 48 h, values are per cent of control

| Structure (SMILES) | growth, % of control at 10 µM [1] [%] | growth, % of control at 10 µM [2] [%] | growth, % of control at 10 µM [3] [%] | growth, % of control at 10 µM [4] [%] | growth, % of control at 10 µM [5] [%] | growth, % of control at 10 µM [6] [%] | growth, % of control at 10 µM [7] [%] | growth, % of control at 10 µM [8] [%] | growth, % of control at 10 µM [9] [%] | growth, % of control at 10 µM [10] [%] | growth, % of control at 10 µM [11] [%] | growth, % of control at 10 µM [12] [%] | growth, % of control at 10 µM [13] [%] | growth, % of control at 10 µM [14] [%] | growth, % of control at 10 µM [15] [%] | growth, % of control at 10 µM [16] [%] | growth, % of control at 10 µM [17] [%] | growth, % of control at 10 µM [18] [%] | growth, % of control at 10 µM [19] [%] | growth, % of control at 10 µM [20] [%] | other results |
| --- | --- | --- | --- | --- | --- | --- | --- | --- | --- | --- | --- | --- | --- | --- | --- | --- | --- | --- | --- | --- | --- |
| COc1ccc(/C=C(\C#N)c2ccc3c(c2)OCO3)c(OC)c1 | 12.8 | 41 | 16.4 | -28.6 | 2.7 | 50.2 | 31.7 | 39.7 | 45.1 | 73.7 | 81.6 | 63.1 | 52.1 | 26.5 | 59.1 | 40 | 40.3 | 53.3 | 46.7 | 63.9 | growth, % of control at 10 µM [21]: 48.9%; growth, % of control at 10 µM [22]: 43.8%; growth, % of control at 10 µM [23]: 35.3%; growth, % of control at 10 µM [24]: 15.9%; growth, % of control at 10 µM [25]: 15.5%; growth, % of control at 10 µM [26]: 36.4%; growth, % of control at 10 µM [27]: 54%; growth, % of control at 10 µM [28]: 73.8%; growth, % of control at 10 µM [29]: 59.1%; growth, % of control at 10 µM [30]: 67.6%; growth, % of control at 10 µM [31]: 36%; growth, % of control at 10 µM [32]: 25.4%; growth, % of control at 10 µM [33]: 19.3%; growth, % of control at 10 µM [34]: 24.4%; growth, % of control at 10 µM [35]: 10%; growth, % of control at 10 µM [36]: 28.1%; growth, % of control at 10 µM [37]: 31.9%; growth, % of control at 10 µM [38]: 27.1%; growth, % of control at 10 µM [39]: 19%; growth, % of control at 10 µM [40]: 55.6% |
| COc1ccc(/C=C(\C#N)c2ccc3c(c2)OCO3)cn1 | 57 | 95.6 | 91.1 | 37.2 | 93.2 | 95.1 | 84.1 | 79.9 | 90.6 | 81.6 | 95 | 90.1 | 107 | 70.8 | 93.4 | 75.3 | 86.5 | 92.6 | 82.3 | 97.4 | growth, % of control at 10 µM [21]: 75.6%; growth, % of control at 10 µM [22]: 101%; growth, % of control at 10 µM [23]: 81%; growth, % of control at 10 µM [24]: 64.2%; growth, % of control at 10 µM [25]: 50.1%; growth, % of control at 10 µM [26]: 77.4%; growth, % of control at 10 µM [27]: 88.1%; growth, % of control at 10 µM [28]: 93.3%; growth, % of control at 10 µM [29]: 93.7%; growth, % of control at 10 µM [30]: 98.3%; growth, % of control at 10 µM [31]: 95.2%; growth, % of control at 10 µM [32]: 97.6%; growth, % of control at 10 µM [33]: 82.6%; growth, % of control at 10 µM [34]: 78%; growth, % of control at 10 µM [35]: 63.8%; growth, % of control at 10 µM [36]: 63.9%; growth, % of control at 10 µM [37]: 86.1%; growth, % of control at 10 µM [38]: 89.3%; growth, % of control at 10 µM [39]: 83.1%; growth, % of control at 10 µM [40]: 96.4% |
